Laboratory results from patent publication US10041937B2, “Macrophage identification agent, and identification method, sorting method, evaluation method, screening method and kit using the macrophage identifier agent” (CANON KABUSHIKI KAISHA, priority 2013, dated 2018).
Entries after “also recorded” stand apart in the source; their conditions may differ.

Test system: M1 macrophages and M2 macrophages differentiated from mouse bone marrow cells
Test: Subtype identification by staining and flow cytometry of M1 and M2 macrophages differentiated from mouse bone marrow cells
Assay type: cell-based, Balb/c mouse
Protocol: The culture of subtypes was performed according to a protocol described in NPL 7. Specifically, bone marrow cells collected from the femur of a Balb/c mouse of 8 to 10 weeks old were dispersed to a concentration of 1×10^6/mL in an IMDM containing 20% FBS and 1% P/S, and 1×10^7 cells were seeded in a 100 mm dish. After further adding an M-CSF (manufactured by Pepro Tech) thereto to a concentration of 50 ng/mL, the cells were incubated for 3 to 4 days in the presence of 5% CO2 at 37° C., so as to differentiate macrophage precursor cells to macrophages. After exchanging the medium, the M-CSF was added to a concentration of 50 ng/mL, and the incubation was performed for further 3 to 4 days in the presence of 5% CO2 at 37° C., and then, the resulting cells were differentiated to macrophage. By adding 200 ng of interferon-γ and 1 μg of […] (both manufactured by Pepro Tech) to the IMDM containing 5% FBS and 1% P/S, the cells were differentiated to the subtype M1. Besides, by adding 100 ng of IL-4 to the IMDM containing 5% FBS and 1% P/S, the cells were differentiated to the subtype M2. After performing the incubation for further 3 days in the presence of 5% CO2 at 37° C., the resultant was rinsed with PBS, and PBS containing 0.25% trypsin and 1 mM EDTA (ethylenediaminetetraacetic acid) was used for collecting, from the dish, the macrophages having been differentiated to the subtypes M1 and M2.
Thereafter, the tube was centrifuged at 180 G for 10 minutes to remove the supernatant, a dye for identifying dead cells (aqua fluorescent reactive dye, manufactured by Invitrogen; which is hereinafter sometimes abbreviated as aqua) was added thereto, and the resultant was incubated at 4° C. for 10 minutes. Subsequently, the tube was centrifuged at 180 G for 10 minutes to remove the supernatant, cells were suspended in a FACS buffer to be analyzed by using FACSCanto (trademark) II flow cytometry apparatus manufactured by BD.
The analysis was performed on a cell population showing a low signal for the aqua, so as to analyze a cell population from which dead cells were eliminated. […] A histogram was prepared by plotting fluorescence intensity obtained in the FITC channel on the abscissa and plotting the number of cells at each fluorescence intensity on the ordinate, which is shown in FIG. 2.
Histograms were prepared by plotting fluorescence intensities obtained in the respective channels on the abscissa and plotting the numbers of cells at each fluorescence intensity on the ordinate. A difference between a fluorescence intensity (FM1) at a peak top of the histogram of the M1 macrophage and a fluorescence intensity (FM2) at a peak top of the histogram of the M2 macrophage is divided by a sum of a peak width (WM1) of the histogram of the M1 macrophage and a peak width (WM2) of the histogram of the M2 macrophage, so as to obtain a resolution R, which was used as an index of the identification ability for a subtype (see the following expression (1)). Resolution R=|FM1−FM2|/(WM1+WM2) Expression (1)

[1] = M1 vs M2 macrophages from mouse bone marrow cells, general formula (6) dyes (Table 7)
[2] = class based on resolution R, general formula (6) dyes (Table 7)
[3] = mouse bone marrow-derived M1 macrophages, channel listed per compound, general formula (6) dyes (Table 7)
[4] = mouse bone marrow-derived M2 macrophages, channel listed per compound, general formula (6) dyes (Table 7)
[5] = R=|FM1−FM2|/(WM1+WM2), compound 1 μM
[6] = fluorescence intensity at peak top of histogram, compound 1 μM, 37° C., 30 minutes

Structure (SMILES)	Resolution ratio R [5]	Peak position of M1 macrophage [6]	Peak position of M2 macrophage [6]	Evaluation of macrophage subtype identification (rated from resolution R)	also measured
CN1/C(=C/C2=C([O-])C(=C/C3=[N+](C)c4ccccc4C3(C)C)/C2=O)C(C)(C)c2ccccc21 [compound (113)]					Resolution ratio R [1]: 0.857; Evaluation of macrophage subtype identification [2]: A (The compound is very good in the subtype identification (namely, the resolution R is 0.5 or more)); Peak position of M1 macrophage [3]: 9.05; Peak position of M2 macrophage [4]: 21.39; subtype more strongly stained (two compounds used in combination, each 1 μM): the M2 macrophage shows a higher fluorescence intensity in the APC-Cy7 channel than the M1 macrophage; also recorded: the M2 macrophages are more strongly stained than the M1 macrophages
CN1\C(=C/C=C/C=C/C2=[N+](C)c3ccc4ccccc4c3C2(C)C)C(C)(C)c2c1ccc1ccccc21 [(92)]					Resolution ratio R [1]: 0.534; Evaluation of macrophage subtype identification [2]: A (The compound is very good in the subtype identification (namely, the resolution R is 0.5 or more)); Peak position of M1 macrophage [3]: 2.27; Peak position of M2 macrophage [4]: 3.9
CSc1ccc(N2c3ccc(/C=C4/SC(=S)N(CC(=O)O)C4=O)cc3C3CCCC32)cc1 (stereo not shown) [(30)]	0.257	55.1	73.9	B (the compound is good in the subtype identification (namely, the resolution R is 0.15 or more and less than 0.5))	
O=C(O)CN1C(=O)/C(=C\c2ccc3c(c2)C2CCCC2N3c2ccc(C=C(c3ccccc3)c3ccccc3)cc2)SC1=S (stereo not shown) [(31)]	0.248	65.1	89.0	B (the compound is good in the subtype identification (namely, the resolution R is 0.15 or more and less than 0.5))	
CC1(C)CCN2CCC(C)(C)c3c2c1cc1cc(-c2nc4ccccc4s2)c(=O)oc31 [(138)]					Resolution ratio R (M1 vs M2 macrophages from mouse bone marrow cells, general formula (10) dyes (Table 8)): 0.312; Evaluation of macrophage subtype identification (class based on resolution R, general formula (10) dyes (Table 8)): B (the compound is good in the subtype identification (namely, the resolution R is 0.15 or more and less than 0.5)); Peak position of M1 macrophage (mouse bone marrow-derived M1 macrophages, channel listed per compound, general formula (10) dyes (Table 8)): 20.6; Peak position of M2 macrophage (mouse bone marrow-derived M2 macrophages, channel listed per compound, general formula (10) dyes (Table 8)): 28.0
CCN1c2ccc(/C=C/c3sc4ccccc4[n+]3CC(=O)O)cc2C2CCCC21 (stereo not shown) [(65)]	0.236	2.96	4.67	B (the compound is good in the subtype identification (namely, the resolution R is 0.15 or more and less than 0.5))	
O=C(O)CN1C(=O)/C(=C\c2ccc3c(c2)C2CCCC2N3Cc2ccccc2)SC1=S (stereo not shown) [(28)]	0.431	9.54	15.8	B (the compound is good in the subtype identification (namely, the resolution R is 0.15 or more and less than 0.5))	
CCOC(=O)CN1C(=O)/C(=C\c2ccc3c(c2)C2CCCC2N3c2ccc(C=C(c3ccccc3)c3ccccc3)cc2)SC1=S (stereo not shown) [(19)]	0.319	0.90	0.64	B (the compound is good in the subtype identification (namely, the resolution R is 0.15 or more and less than 0.5))	
CC1(C)C(/C=C/C=C/C=C/C=C2\N(CCCCS(=O)(=O)[O-])c3ccccc3C2(C)C)=[N+](CCCCS(=O)(=O)[O-])c2ccccc21.[Na+] [(90)]					Resolution ratio R [1]: 0.321; Evaluation of macrophage subtype identification [2]: B (the compound is good in the subtype identification (namely, the resolution R is 0.15 or more and less than 0.5)); Peak position of M1 macrophage [3]: 0.86; Peak position of M2 macrophage [4]: 1.31
O=C(O)CCCCCN1C(=O)/C(=C\c2ccc3c(c2)C2CCCC2N3c2ccccc2)SC1=S (stereo not shown) [(17)]	0.577	7.74	16.5	A (The compound is very good in the subtype identification (namely, the resolution R is 0.5 or more))	
COc1ccc(N2c3ccc(/C=C/C4=[N+](CCC(=O)O)c5ccc6ccccc6c5C4(C)C)cc3C3CCCC32)cc1 (stereo not shown) [(60)]	0.621	4.55	7.65	A (The compound is very good in the subtype identification (namely, the resolution R is 0.5 or more))	
CCOC(=O)CN1C(=O)/C(=C\c2ccc3c(c2)C2CCCC2N3c2ccc(OC)cc2)SC1=S (stereo not shown) [(21)]	0.351	40.0	20.3	B (the compound is good in the subtype identification (namely, the resolution R is 0.15 or more and less than 0.5))	
CCN1c2ccc(/C=C/C=C3/SC(=S)N(CCC(=O)O)C3=O)cc2C2CCCC21 (stereo not shown) [(76)]	0.283	7.77	10.5	B (the compound is good in the subtype identification (namely, the resolution R is 0.15 or more and less than 0.5))	
CCN1/C(=C\C=C\c2sc3ccccc3[n+]2CC)Sc2ccccc21 [(100)]					Resolution ratio R [1]: 0.372; Evaluation of macrophage subtype identification [2]: B (the compound is good in the subtype identification (namely, the resolution R is 0.15 or more and less than 0.5)); Peak position of M1 macrophage [3]: 16.41; Peak position of M2 macrophage [4]: 32.87
COc1ccc(N2c3ccc(/C=C4/SC(=S)N(CC(=O)O)C4=O)cc3C3CCCC32)cc1 (stereo not shown) [(25)]	0.346	27.4	18.2	B (the compound is good in the subtype identification (namely, the resolution R is 0.15 or more and less than 0.5))	
COc1ccc(N2c3ccc(/C=c4/s/c(=C5/SC(=S)N(Cc6ccccc6)C5=O)n(CC(=O)O)c4=O)cc3C3CCCC32)cc1 (stereo not shown) [(54)]	0.531	154	211	A (The compound is very good in the subtype identification (namely, the resolution R is 0.5 or more))	
C=CCN1C(=O)/C(=c2\s/c(=C/c3ccc4c(c3)C3CCCC3N4Cc3ccccc3)c(=O)n2CC(=O)OCC)SC1=S (stereo not shown) [(52)]	0.756	3.90	1.68	A (The compound is very good in the subtype identification (namely, the resolution R is 0.5 or more))	
CSc1ccc(N2c3ccc(/C=C4/SC(=S)N(CCC(=O)O)C4=O)cc3C3CCCC32)cc1 (stereo not shown) [(6)]	0.504	26.5	50.4	A (The compound is very good in the subtype identification (namely, the resolution R is 0.5 or more))	
O=C(O)Cn1c(=O)/c(=C\c2ccc3c(c2)C2CCCC2N3Cc2ccccc2)s/c1=C1/SC(=S)N(Cc2ccccc2)C1=O (stereo not shown) [(53)]	0.650	128	190	A (The compound is very good in the subtype identification (namely, the resolution R is 0.5 or more))	
CCN1C(=O)S/C(=c2/s/c(=C/c3ccc4c(c3)C3CCCC3N4Cc3ccccc3)c(=O)n2CC(=O)O)C1=O (stereo not shown) [(43)]	0.411	7.14	13.0	B (the compound is good in the subtype identification (namely, the resolution R is 0.15 or more and less than 0.5))	
CCOC(=O)Cn1c(=O)/c(=C\c2ccc3c(c2)C2CCCC2N3c2ccc(OC)cc2)s/c1=C1/SC(=O)N(CC)C1=O (stereo not shown) [(45)]	0.822	18.2	4.84	A (The compound is very good in the subtype identification (namely, the resolution R is 0.5 or more))	
